The source of these data is ChEMBL document CHEMBL1909046, “DrugMatrix in vitro pharmacology data”.

Assay [1] has as its target T1, Endothelin-1 receptor (Homo sapiens, UniProt P25101). Also: in other assays of this panel Not Active means under 50% inhibition at 10 µM.
T1 sequence (P25101 whole entry): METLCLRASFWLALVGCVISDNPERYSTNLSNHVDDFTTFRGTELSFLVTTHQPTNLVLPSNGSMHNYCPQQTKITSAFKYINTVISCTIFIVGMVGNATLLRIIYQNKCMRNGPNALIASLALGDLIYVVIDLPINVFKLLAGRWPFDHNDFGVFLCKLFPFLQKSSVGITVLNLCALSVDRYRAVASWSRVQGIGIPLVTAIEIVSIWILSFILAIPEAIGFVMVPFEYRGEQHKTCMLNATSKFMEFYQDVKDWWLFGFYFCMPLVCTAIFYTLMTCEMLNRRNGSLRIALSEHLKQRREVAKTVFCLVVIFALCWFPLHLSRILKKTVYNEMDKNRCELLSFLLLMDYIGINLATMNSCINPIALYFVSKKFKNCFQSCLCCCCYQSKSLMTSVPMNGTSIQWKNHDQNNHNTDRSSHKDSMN
The class given is cell membranes, Membrane. Particulars: cho-k1.

In assay [2] the target is Histamine H2 receptor (Homo sapiens, UniProt P25021). The class given is cell membranes, CHO-K1, Membrane. Particulars: cho-k1. Also: in other assays of this panel Not Active means under 50% inhibition at 10 µM.
Assay [3] can be described thus: DRUGMATRIX: Imidazoline I2, Central radioligand binding (ligand: [3H] Idazoxan). The following applies: Not Active = under 50% inhibition at 10 µM. The class given is cell membranes, Rattus norvegicus, Wistar, Cerebral cortex, Membrane.
The target of assay [4] is T2, Cysteinyl leukotriene receptor 1 (Homo sapiens, UniProt Q9Y271). Also: in other assays of this panel Not Active means under 50% inhibition at 10 µM.
T2 sequence (Q9Y271 whole entry): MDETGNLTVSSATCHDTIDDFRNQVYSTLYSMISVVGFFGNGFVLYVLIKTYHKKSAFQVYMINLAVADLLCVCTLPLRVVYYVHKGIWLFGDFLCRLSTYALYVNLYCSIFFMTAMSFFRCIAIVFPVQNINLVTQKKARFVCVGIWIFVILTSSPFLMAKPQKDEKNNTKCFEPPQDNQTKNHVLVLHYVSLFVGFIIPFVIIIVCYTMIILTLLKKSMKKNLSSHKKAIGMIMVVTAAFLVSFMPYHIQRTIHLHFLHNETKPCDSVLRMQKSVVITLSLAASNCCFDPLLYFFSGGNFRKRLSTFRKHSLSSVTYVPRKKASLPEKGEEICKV
The class given is cell membranes, Membrane. Particulars: cho-k1.

Assay [5] concerns the target T3, Muscarinic acetylcholine receptor M4 (Homo sapiens, UniProt P08173). Also: in other assays of this panel Not Active means under 50% inhibition at 10 µM.
T3 sequence (P08173 whole entry): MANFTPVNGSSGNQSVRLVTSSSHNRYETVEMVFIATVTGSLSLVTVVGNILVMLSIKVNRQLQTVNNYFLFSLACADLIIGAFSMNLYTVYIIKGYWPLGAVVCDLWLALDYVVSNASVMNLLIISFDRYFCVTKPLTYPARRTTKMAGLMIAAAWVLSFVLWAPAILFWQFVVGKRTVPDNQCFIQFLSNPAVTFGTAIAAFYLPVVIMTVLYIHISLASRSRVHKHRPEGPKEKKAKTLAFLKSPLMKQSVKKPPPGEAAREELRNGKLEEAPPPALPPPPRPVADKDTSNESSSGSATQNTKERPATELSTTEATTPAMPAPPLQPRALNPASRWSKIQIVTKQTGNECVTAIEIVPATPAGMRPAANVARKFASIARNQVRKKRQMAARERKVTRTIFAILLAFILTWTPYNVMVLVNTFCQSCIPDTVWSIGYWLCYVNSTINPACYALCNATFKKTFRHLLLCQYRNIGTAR
The class given is cell membranes, CHO-K1, Membrane.

The target of assay [6] is Tyrosine-protein kinase Fyn (Homo sapiens, UniProt P06241). Kind of assay: biochemical. The class given is cell-based, Insect cells. The following applies: insect cells.
Tyrosine-protein kinase Fyn, sequence (P06241 whole entry): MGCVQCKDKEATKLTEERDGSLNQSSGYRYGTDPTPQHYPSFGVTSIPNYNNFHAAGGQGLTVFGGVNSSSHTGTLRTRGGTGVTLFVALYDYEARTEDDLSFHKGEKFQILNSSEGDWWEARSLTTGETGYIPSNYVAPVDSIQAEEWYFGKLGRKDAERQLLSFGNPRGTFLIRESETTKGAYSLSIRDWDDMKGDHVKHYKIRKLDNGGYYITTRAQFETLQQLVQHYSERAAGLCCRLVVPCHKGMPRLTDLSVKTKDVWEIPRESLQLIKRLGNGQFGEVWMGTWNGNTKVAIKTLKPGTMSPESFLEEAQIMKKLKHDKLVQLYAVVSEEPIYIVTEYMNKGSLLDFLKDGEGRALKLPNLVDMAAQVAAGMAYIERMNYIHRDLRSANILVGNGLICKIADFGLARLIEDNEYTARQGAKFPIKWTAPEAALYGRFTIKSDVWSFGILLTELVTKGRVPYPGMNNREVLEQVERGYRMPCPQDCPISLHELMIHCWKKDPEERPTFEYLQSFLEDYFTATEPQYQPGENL

Histamine H2 receptor, sequence (P25021 whole entry): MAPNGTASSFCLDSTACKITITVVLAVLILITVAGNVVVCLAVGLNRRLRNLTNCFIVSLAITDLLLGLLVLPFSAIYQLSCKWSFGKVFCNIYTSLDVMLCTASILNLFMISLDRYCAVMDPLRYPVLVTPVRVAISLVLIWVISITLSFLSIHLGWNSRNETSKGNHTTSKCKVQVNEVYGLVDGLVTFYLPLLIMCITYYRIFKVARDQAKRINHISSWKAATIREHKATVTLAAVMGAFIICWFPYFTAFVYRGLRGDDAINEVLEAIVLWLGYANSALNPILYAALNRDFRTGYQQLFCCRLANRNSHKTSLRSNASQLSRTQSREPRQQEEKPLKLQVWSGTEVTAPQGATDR

`CO/N=C(\C(=O)N[C@@H]1C(=O)N2C(C(=O)O)=C(COC(C)=O)CS[C@H]12)c1csc(N)n1` [CEFOTAXIME]: the IC50 entry in assay [1], in assay [2], in assay [3], in assay [4], in assay [5] (cho-k1) and in assay [6] was “Not Active” throughout. Further, the Ki (usually the dissociation constant of the complex between target and ligand, obtained from inhibition or displacement) in assay [3] is recorded as “Not Active”.
For the compound `CNC1=Nc2ccc(Cl)cc2C(c2ccccc2)=[N+]([O-])C1` [CHLORDIAZEPOXIDE], the IC50 entry in assay [1], in assay [2], in assay [3], in assay [4], in assay [5] (cho-k1) and in assay [6] was “Not Active” throughout. Moreover, the Ki entry in assay [3] is on record as “Not Active”.
Regarding `Cc1cc(O)cc(C)c1Cl` [CHLOROXYLENOL], the IC50 entry in assay [1], in assay [2], in assay [3], in assay [4], in assay [5] (cho-k1) and in assay [6] was “Not Active” each time. Besides, the Ki entry in assay [3] is reported as “Not Active”.
Consider `CCCNC(=O)NS(=O)(=O)c1ccc(Cl)cc1` [CHLORPROPAMIDE], for which the IC50 result in assay [1], in assay [2], in assay [3], in assay [4], in assay [5] (cho-k1) and in assay [6] was “Not Active” throughout. In addition, the Ki entry in assay [3] is given as “Not Active”.
Consider `NS(=O)(=O)c1cc(C2(O)NC(=O)c3ccccc32)ccc1Cl` (stereo not drawn) [CHLORTHALIDONE], for which the IC50 entry in assay [1], in assay [2], in assay [3], in assay [4], in assay [5] (cho-k1) and in assay [6] was “Not Active” throughout. The Ki entry in assay [3] is given as “Not Active”.
`O=C(O)CC(O)(CC(=O)O)C(=O)O` [CITRIC ACID]: the IC50 entry in assay [1], in assay [2], in assay [3], in assay [4], in assay [5] (cho-k1) and in assay [6] was “Not Active” throughout. Besides, the Ki entry in assay [3] was “Not Active”.
Turning to `CC(C)NCC(O)c1ccccc1Cl` (stereo not drawn) [CLORPRENALINE], the IC50 result in assay [1], in assay [2], in assay [3], in assay [4], in assay [5] (cho-k1) and in assay [6] was “Not Active” each time. Further, the Ki entry in assay [3] is “Not Active”.
For the compound `CN1CCN(C(c2ccccc2)c2ccccc2)CC1` [CYCLIZINE], the IC50 (usually the concentration at which inhibition is half-maximal) is “Not Active” in assay [1]; “Not Active” in assay [2]; 3130 nM in assay [3] (read-out: IC50); “Not Active” in assay [4]; 852 nM in assay [5] (read-out: IC50); “Not Active” in assay [6]. Also, the Ki in assay [3] (read-out: Ki) came to 2090 nM; in assay [5] (read-out: Ki), 119 nM.
As to `CN1C[C@@H]2C[C@H]1CN2c1cc2c(cc1F)c(=O)c(C(=O)O)cn2C1CC1` [DANOFLOXACIN], the IC50 result in assay [1], in assay [2], in assay [3], in assay [4], in assay [5] (cho-k1) and in assay [6] was “Not Active” each time. Further, the Ki entry in assay [3] is “Not Active”.
On to `COc1cccc2c1C(=O)c1c(O)c3c(c(O)c1C2=O)C[C@@](O)(C(C)=O)C[C@@H]3O[C@H]1C[C@H](N)[C@H](O)[C@H](C)O1` [DAUNORUBICIN], for which the IC50 entry in assay [1], in assay [2], in assay [3], in assay [4], in assay [5] (cho-k1) and in assay [6] was “Not Active” in each case. In addition, the Ki result in assay [3] is given as “Not Active”.
Take `O=C(O)c1cc(-c2ccc(F)cc2F)ccc1O` [DIFLUNISAL]: the IC50 result in assay [1], in assay [2], in assay [3], in assay [4], in assay [5] (cho-k1) and in assay [6] was “Not Active” throughout. In assay [3], the Ki result is “Not Active”.
In the case of `C[S+](C)[O-]` [DIMETHYL SULFOXIDE], the IC50 entry in assay [1], in assay [2], in assay [3], in assay [4], in assay [5] (cho-k1) and in assay [6] was “Not Active” in each case. Moreover, the Ki entry in assay [3] was “Not Active”.
As to `CC1=NN(c2ccccc2)C(=O)C1` [EDARAVONE], the IC50 entry in assay [1], in assay [2], in assay [3], in assay [4], in assay [5] (cho-k1) and in assay [6] was “Not Active” in each case. Besides, in assay [3], the Ki result is “Not Active”.
Regarding `CC(C)C[C@H]1C(=O)N2CCC[C@H]2[C@]2(O)O[C@](NC(=O)[C@@H]3C=C4c5cccc6[nH]cc(c56)C[C@H]4N(C)C3)(C(C)C)C(=O)N12` [ERGOCRYPTINE], the IC50 entry is “Not Active” in assay [1]; “Not Active” in assay [2]; 3.28 nM in assay [3] (read-out: IC50); “Not Active” in assay [4]; “Not Active” in assay [5] (cho-k1); “Not Active” in assay [6]. In addition, the Ki in assay [3] (read-out: Ki) worked out at 2.19 nM.
For `C[C@]12CC[C@@H]3c4ccc(O)cc4CC[C@H]3[C@@H]1C[C@@H](O)[C@@H]2O` [ESTRIOL], the IC50 result in assay [1], in assay [2], in assay [3], in assay [4], in assay [5] (cho-k1) and in assay [6] was “Not Active” throughout. Also, in assay [3], the Ki result is listed as “Not Active”.
On to `C#C[C@]1(O)CC[C@H]2[C@@H]3CCC4=CC(=O)CC[C@]4(C)[C@H]3CC[C@@]21C` [ETHISTERONE], for which the half-inhibitory concentration (IC50) entry in assay [1], in assay [2], in assay [3], in assay [4], in assay [5] (cho-k1) and in assay [6] was “Not Active” in each case. For the same compound, the Ki entry in assay [3] was “Not Active”.
As for `CC(O)(P(=O)(O)O)P(=O)(O)O` [ETIDRONIC ACID], the IC50 entry in assay [1], in assay [2], in assay [3], in assay [4], in assay [5] (cho-k1) and in assay [6] was “Not Active” each time. Besides, the Ki entry in assay [3] is “Not Active”.
As for `CC(C)(C(=O)O)c1ccc(C(O)CCCN2CCC(C(O)(c3ccccc3)c3ccccc3)CC2)cc1` (stereo not drawn) [FEXOFENADINE], the IC50 entry in assay [1], in assay [2], in assay [3], in assay [4], in assay [5] (cho-k1) and in assay [6] was “Not Active” each time. For the same compound, the Ki entry in assay [3] is “Not Active”.
In the case of `CN1CCN(c2c(F)cc3c(=O)c(C(=O)O)cn(CCF)c3c2F)CC1` [FLEROXACIN], the IC50 result in assay [1], in assay [2], in assay [3], in assay [4], in assay [5] (cho-k1) and in assay [6] was “Not Active” in each case. Moreover, in assay [3], the Ki entry is on record as “Not Active”.
Regarding `O=c1[nH]c(=O)n([C@H]2C[C@H](O)[C@@H](CO)O2)cc1F` [FLOXURIDINE], the IC50 result in assay [1], in assay [2], in assay [3], in assay [4], in assay [5] (cho-k1) and in assay [6] was “Not Active” in each case. The Ki result in assay [3] is “Not Active”.
As for `COC(=O)Nc1nc2cc(C(=O)c3ccc(F)cc3)ccc2[nH]1` [FLUBENDAZOLE], the IC50 entry in assay [1], in assay [2], in assay [3], in assay [4], in assay [5] (cho-k1) and in assay [6] was “Not Active” each time. The Ki entry in assay [3] was “Not Active”.
